Reference: US8686050B2, “Diglycidic ether derivative therapeutics and methods for their use” (British Columbia Cancer Agency Branch, priority 2008, dated 2014)
“Also recorded” adds a separate entry of the source. Structures can show the parent of a compound that is named as a salt.

Legend:
PC3 cells = experiment: Proliferation of PC3 cells (BrdU incorporation); format: cell-based, human; settings: 185-9-2 5 μg/ml, 3 days
From the text: LNCaP cells were employed initially for all experiments because they are well-differentiated human prostate cancer cells in which ligand-independent activation of the AR by FSK has been characterized (Nazareth et al 1996 J. Biol. Chem. 271, 19900-19907; and Sadar 1999 J. Biol. Chem. 274, 7777-7783). LNCaP cells express endogenous AR and secrete prostate-specific antigen (PSA) (Horoszewicz et al 1983 Cancer Res. 43, 1809-1818). LNCaP cells can be grown either as monolayers in cell culture or as tumors in the well-characterized xenograft model that progresses to androgen independence in castrated hosts (Sato et al 1996 J. Steroid Biochem. Mol. Biol. 58, 139-146; Gleave et al 1991 Cancer Res. 51, 3753-3761; Sato et al 1997 Cancer Res. 57, 1584-1589; and Sadar et al 2002 Mol. Cancer. Ther. 1(8), 629-637). […] Small molecules that specifically target the AR-NTD should have no effect on PC3 cells. […] Reporter specificity may be determined using several alternative reporter gene constructs. […]
The prostate gland is an androgen-dependent organ where androgens are the predominant mitogenic stimulus (Isaacs J T, Scott W W, Coffey D S., Prog Clin Biol Res. 1979; 33:133-44). […] BrdU incorporation was measured 4 days later to indicate changes in proliferation in response to androgen (FIG. 12). […]

[1] = biological target: T1, Gal4 DBD-AR1-558 (AR NTD) (Homo sapiens, UniProt P10275); experiment: Transactivation of the AR NTD (Gal4 DBD-AR1-558 with 5xGal4UAS-luciferase) in LNCaP cells; format: cell-based; settings: LNCaP cells, 185-9-2 5 ug/ml=12 μM, bicalutamide 10 μM
T1 construct: cloning amino acids 1-558 of the human AR NTD into the C-terminus of Gal4 DBD; expressed in transfected cells; host or cells: LNCaP
T1 sequence (P10275 1-558): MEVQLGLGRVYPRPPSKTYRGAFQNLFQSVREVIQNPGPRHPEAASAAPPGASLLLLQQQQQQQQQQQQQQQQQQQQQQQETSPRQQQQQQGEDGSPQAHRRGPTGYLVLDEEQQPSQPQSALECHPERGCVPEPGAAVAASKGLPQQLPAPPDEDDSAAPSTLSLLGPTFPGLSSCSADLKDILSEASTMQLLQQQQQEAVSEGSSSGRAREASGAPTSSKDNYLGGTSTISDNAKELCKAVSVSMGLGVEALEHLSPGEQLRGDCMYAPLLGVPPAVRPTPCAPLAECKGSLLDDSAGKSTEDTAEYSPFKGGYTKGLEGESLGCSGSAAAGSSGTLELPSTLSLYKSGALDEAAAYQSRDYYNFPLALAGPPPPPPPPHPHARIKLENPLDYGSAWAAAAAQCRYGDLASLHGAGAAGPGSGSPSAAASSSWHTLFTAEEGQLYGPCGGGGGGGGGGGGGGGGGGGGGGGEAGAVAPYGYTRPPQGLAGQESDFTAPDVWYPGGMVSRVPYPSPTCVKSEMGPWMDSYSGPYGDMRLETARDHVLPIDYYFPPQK
From the text: These fractions were next tested for their ability to inhibit the AR NTD. […] Extracts identified above were screened by such assays as well as some compounds purchased from commercial suppliers.
Expression vectors for these chimeric proteins were cotransfected into LNCaP cells with a reporter gene containing the Gal4-binding site as cis-acting elements (p5×Gal4UAS-TATA-luciferase).

[2] = General toxicity in xenograft-bearing mice (behavior, body weight, organ histology)
Method: For routine histology, major organs and xenografts were harvested upon completion of the experiment and were fixed in 10% neutral buffered formalin and then embedded in paraffin. Fixed sections were cut and stained with H&E. To determine possible effects of compounds on the proliferation rates and apoptosis in xenografts, Ki-67 immunostaining and the TUNEL assay was performed. […] Levels of AR were determined by immunohistochemistry or Western blot analysis.
LNCaP human prostate cancer cells express endogenous androgen receptor (AR) and prostate-specific antigen (PSA), and progress to androgen independence in castrated hosts. LNCaP cells (10^6/ml) were implanted subcutaneously into NOD-SCID male mice that were at least 8 weeks in age. The cells were suspended in 75 μl of RPMI medium 1640 (5% FBS) with 75 μl of Matrigel and injected into the flank region of the host under anesthesia. […] A total of five doses were given to the animal. Tumor volume and body weight were measured every 5 days.
IHC data was prepared by a commercial lab that was blinded to treatments.
PC3 cells were implanted subcutaneously into NOD-SCID male mice. […] Animals were treated every 5 days with a subcutaneous dose of 20 mg/kg body weight of PNG01-185-017-9-2 or matching volume of vehicle (control, DMSO). Tumor volume and body weight were measured every 5 days.

## CC(C)(c1ccc(OCC(O)CO)cc1)c1ccc(OCC(O)CCl)cc1 (stereo not shown) [185-9-2, BADGE.HCL.H2O]
PC3 cells
  proliferation of PC3 cells (BrdU incorporation): does NOT block proliferation; also recorded: not to block proliferation
[1]; FSK 50 μM
  FSK-induced transactivation of the AR NTD: to baseline levels; also recorded: blocked
[1]; IL-6 50 ng/ml
  IL-6-induced transactivation of the AR NTD: to baseline levels; also recorded: blocked
[2]; I.V. 50 mg/kg every other day
  body weight, LNCaP xenograft mice, intravenous: did not reduce body weight
[2]; day 0 versus day 25
  body weight, LNCaP xenograft mice, intratumoral: did not reduce body weight
[2]; i.v. 50 mg/kg every other day, 5 injections, H&E
  pathology review of lung, heart, liver, spleen, and kidney: showed no signs of toxicity
[2]; mouse, in vivo, iv
  general toxicity indicated by animal behavior or body weight: not to cause general toxicity
